Experimental data as given in patent publication US12599136B2, “Substituted isophthalic acid diamides and their use as herbicides” (Bayer Aktiengesellschaft, priority 2020, dated 2026).

Tests used:
Assay type in all cases: in vivo
[1] = tested on: Matricaria inodora; assay: Pre-emergence herbicidal action against MATIN; details: visual score after 3 weeks vs untreated controls
Outline: (§1)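 Pre-emergence soil-surface spray of formulated compound (WP or EC; 600 to 800 l/ha; 0.2% wetting agent) over seeds sown in sandy loam. After 3 weeks under greenhouse conditions, damage is estimated visually in percent against untreated plants.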

[2] = tested on: Lolium rigidum; assay: Post-emergence herbicidal action against LOLRI; details: 80 g/ha
Method: (§2) Seeds of monocotyledonous and dicotyledonous weed and crop plants are laid out in sandy loam soil in wood-fiber pots, covered with soil and cultivated in a greenhouse under good growth conditions. 2 to 3 weeks after sowing, the test plants are treated at the one-leaf stage. The compounds of the invention, formulated in the form of wettable powders (WP) or as emulsion concentrates (EC), are then sprayed onto the green parts of the plants in the form of an aqueous suspension or emulsion at a water application rate equivalent to 600 to 800 l/ha, with addition of 0.2% wetting agent. After the test plants have been left to stand in the greenhouse under optimal growth conditions for about 3 weeks, the action of the preparations is assessed visually in comparison to untreated controls (herbicidal action in percent (%): 100% activity=the plants have died, 0% activity=like control plants). […] The tables below illustrate, in an illustrative manner, the post-emergence herbicidal action of the compounds of the invention, the herbicidal activity being stated in percent.

[3] = tested on: Stellaria media; assay: Post-emergence herbicidal action against STEME; details: visual assessment about 3 weeks after treatment
Outline: (§3)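 Greenhouse plants in sandy loam were sprayed at the one-leaf stage, 2 to 3 weeks after sowing, with WP or EC formulations as aqueous suspension or emulsion (600 to 800 l/ha water, 0.2% wetting agent). Visual damage was scored about 3 weeks later versus untreated controls, 0% = like control, 100% = dead.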

[4] = tested on: Abutilon theophrasti; assay: Pre-emergence herbicidal action against ABUTH; details: visual score after 3 weeks vs untreated controls
Outline: as §1

[5] = tested on: Polygonum convolvulus; assay: Pre-emergence herbicidal action against POLCO
Outline: as §1

[6] = tested on: Abutilon theophrasti; assay: Post-emergence herbicidal action against ABUTH
Outline: as §3

[7] = tested on: Matricaria inodora; assay: Post-emergence herbicidal action against MATIN; details: visual assessment about 3 weeks after treatment
Outline: as §3

[8] = tested on: Veronica persica; assay: Pre-emergence herbicidal action against VERPE
Outline: as §1

[9] = tested on: Stellaria media; assay: Pre-emergence herbicidal action against STEME
Outline: as §1

[10] = tested on: Echinochloa crus-galli; assay: Post-emergence herbicidal action against ECHCG; details: visual assessment about 3 weeks after treatment
Outline: as §3

[11] = tested on: Avena fatua; assay: Post-emergence herbicidal action against AVEFA; details: visual assessment about 3 weeks after treatment
Outline: as §3

[12] = tested on: Lolium rigidum; assay: Pre-emergence herbicidal action against LOLRI
Outline: as §1

[13] = tested on: Echinochloa crus-galli; assay: Pre-emergence herbicidal action against ECHCG; details: visual score after 3 weeks vs untreated controls
Outline: as §1

[14] = tested on: Viola tricolor; assay: Pre-emergence herbicidal action against VIOTR
Outline: as §1

[15] = tested on: Cyperus esculentus; assay: Post-emergence herbicidal action against CYPES; details: 80 g/ha, visual assessment about 3 weeks after treatment
Method: as §2

[16] = tested on: Setaria viridis; assay: Post-emergence herbicidal action against SETVI; details: visual assessment about 3 weeks after treatment
Outline: as §3

[17] = tested on: Polygonum convolvulus; assay: Post-emergence herbicidal action against POLCO; details: visual assessment about 3 weeks after treatment
Outline: as §3

[18] = tested on: Avena fatua; assay: Pre-emergence herbicidal action against AVEFA; details: visual score after 3 weeks vs untreated controls
Outline: as §1

[19] = tested on: Cyperus esculentus; assay: Pre-emergence herbicidal action against CYPES; details: visual score after 3 weeks vs untreated controls
Outline: as §1

[20] = tested on: Hordeum murinum; assay: Pre-emergence herbicidal action against HORMU; details: 320 g/ha; visual score after 3 weeks vs untreated controls
Outline: as §1

[21] = tested on: Amaranthus retroflexus; assay: Post-emergence herbicidal action against AMARE; details: visual assessment about 3 weeks after treatment
Outline: as §3

[22] = tested on: Amaranthus retroflexus; assay: Pre-emergence herbicidal action against AMARE; details: visual score after 3 weeks vs untreated controls
Outline: as §1

[23] = tested on: Pharbitis purpurea; assay: Post-emergence herbicidal action against PHBPU; details: visual assessment about 3 weeks after treatment
Outline: as §3

[24] = tested on: Veronica persica; assay: Post-emergence herbicidal action against VERPE; details: visual assessment about 3 weeks after treatment
Outline: as §3

[25] = tested on: Setaria viridis; assay: Pre-emergence herbicidal action against SETVI
Outline: as §1

[26] = tested on: Alopecurus myosuroides; assay: Post-emergence herbicidal action against ALOMY
Outline: as §3

[27] = tested on: Viola tricolor; assay: Post-emergence herbicidal action against VIOTR
Outline: as §3

[28] = tested on: Alopecurus myosuroides; assay: Pre-emergence herbicidal action against ALOMY; details: visual score after 3 weeks vs untreated controls
Outline: as §1

[29] = tested on: Pharbitis purpurea; assay: Pre-emergence herbicidal action against PHBPU; details: 320 g/ha; visual score after 3 weeks vs untreated controls
Outline: as §1

[30] = Dosage column 320 g/ha (heading prints 3200 g/ha)

CCn1nnnc1NC(=O)c1ccc(C(F)(F)F)c(C(=O)N2CCCC2)c1Cl [Example 2-152]
90%: Pre-emergence action against MATIN ([1]; 20 g/ha) | Post-emergence action against LOLRI in % [2] | Post-emergence action against STEME in % ([3]; 20 g/ha) | Post-emergence action against STEME in % ([3]; 80 g/ha) | Pre-emergence action against POLCO ([5]; 320 g/ha) | Pre-emergence action against SETVI ([25]; 80 g/ha) | Post-emergence action against ALOMY ([26]; 20 g/ha) | Pre-emergence action against ALOMY ([28]; 80 g/ha)
100%: Pre-emergence action against MATIN ([1]; 80 g/ha) | Pre-emergence action against MATIN ([1]; 320 g/ha) | Pre-emergence action against ABUTH ([4]; 20 g/ha) | Pre-emergence action against ABUTH ([4]; 80 g/ha) | Pre-emergence action against ABUTH [4, 30] | Post-emergence action against MATIN in % ([7]; 80 g/ha) | Pre-emergence action against VERPE ([8]; 320 g/ha) | Pre-emergence action against STEME ([9]; 20 g/ha) | Pre-emergence action against STEME ([9]; 80 g/ha) | Pre-emergence action against STEME ([9]; 320 g/ha) | Post-emergence action against ECHCG in % ([10]; 20 g/ha) | Post-emergence action against ECHCG in % ([10]; 80 g/ha) | Post-emergence action against AVEFA in % ([11]; 20 g/ha) | Post-emergence action against AVEFA in % ([11]; 80 g/ha) | Pre-emergence action against LOLRI ([12]; 320 g/ha) | Pre-emergence action against ECHCG ([13]; 320 g/ha) | Pre-emergence action against VIOTR ([14]; 320 g/ha) | Post-emergence action against SETVI in % ([16]; 80 g/ha) | Pre-emergence action against AVEFA ([18]; 80 g/ha) | Pre-emergence action against AVEFA ([18]; 320 g/ha) | Pre-emergence action against CYPES ([19]; 320 g/ha) | Post-emergence action against AMARE in % ([21]; 5 g/ha) | Post-emergence action against AMARE in % ([21]; 20 g/ha) | Post-emergence action against AMARE in % ([21]; 80 g/ha) | Pre-emergence action against AMARE ([22]; 20 g/ha) | Pre-emergence action against AMARE ([22]; 80 g/ha) | Pre-emergence action against AMARE ([22]; 320 g/ha) | Pre-emergence action against SETVI ([25]; 320 g/ha) | Post-emergence action against ALOMY ([26]; 80 g/ha) | Post-emergence action against VIOTR in % ([27]; 20 g/ha) | Post-emergence action against VIOTR in % ([27]; 80 g/ha) | Pre-emergence action against ALOMY ([28]; 320 g/ha)
80%: Post-emergence action against STEME in % ([3]; 5 g/ha) | Pre-emergence action against POLCO ([5]; 80 g/ha) | Post-emergence action against ABUTH ([6]; 5 g/ha) | Post-emergence action against ABUTH ([6]; 20 g/ha) | Post-emergence action against ABUTH ([6]; 80 g/ha) | Post-emergence action against MATIN in % ([7]; 5 g/ha) | Post-emergence action against MATIN in % ([7]; 20 g/ha) | Pre-emergence action against VERPE ([8]; 80 g/ha) | Post-emergence action against AVEFA in % ([11]; 5 g/ha) | Post-emergence action against CYPES in % [15] | Post-emergence action against SETVI in % ([16]; 20 g/ha) | Post-emergence action against POLCO in % ([17]; 80 g/ha) | Pre-emergence action against CYPES ([19]; 80 g/ha) | Pre-emergence action against HORMU [20] | Post-emergence action against PHBPU in % ([23]; 20 g/ha) | Post-emergence action against PHBPU in % ([23]; 80 g/ha) | Post-emergence action against VERPE in % ([24]; 5 g/ha) | Post-emergence action against VERPE in % ([24]; 20 g/ha) | Post-emergence action against VERPE in % ([24]; 80 g/ha) | Post-emergence action against ALOMY ([26]; 5 g/ha)

CCn1nnnc1NC(=O)c1ccc(C(F)(F)F)c(C(=O)n2cccn2)c1Cl [Example 2-153]
100%: Pre-emergence action against MATIN ([1]; 20 g/ha) | Pre-emergence action against MATIN ([1]; 80 g/ha) | Pre-emergence action against MATIN ([1]; 320 g/ha) | Post-emergence action against STEME in % ([3]; 5 g/ha) | Post-emergence action against STEME in % ([3]; 20 g/ha) | Post-emergence action against STEME in % ([3]; 80 g/ha) | Pre-emergence action against ABUTH ([4]; 20 g/ha) | Pre-emergence action against ABUTH ([4]; 80 g/ha) | Pre-emergence action against ABUTH [4, 30] | Pre-emergence action against POLCO ([5]; 320 g/ha) | Post-emergence action against ABUTH ([6]; 80 g/ha) | Post-emergence action against MATIN in % ([7]; 20 g/ha) | Post-emergence action against MATIN in % ([7]; 80 g/ha) | Pre-emergence action against STEME ([9]; 80 g/ha) | Pre-emergence action against STEME ([9]; 320 g/ha) | Post-emergence action against AVEFA in % ([11]; 80 g/ha) | Pre-emergence action against PHBPU [29] | Pre-emergence action against ECHCG ([13]; 80 g/ha) | Pre-emergence action against ECHCG ([13]; 320 g/ha) | Pre-emergence action against VIOTR ([14]; 80 g/ha) | Pre-emergence action against VIOTR ([14]; 320 g/ha) | Post-emergence action against SETVI in % ([16]; 80 g/ha) | Post-emergence action against POLCO in % ([17]; 80 g/ha) | Pre-emergence action against AVEFA ([18]; 80 g/ha) | Pre-emergence action against AVEFA ([18]; 320 g/ha) | Pre-emergence action against CYPES ([19]; 80 g/ha) | Pre-emergence action against CYPES ([19]; 320 g/ha) | Post-emergence action against AMARE in % ([21]; 5 g/ha) | Post-emergence action against AMARE in % ([21]; 20 g/ha) | Post-emergence action against AMARE in % ([21]; 80 g/ha) | Pre-emergence action against AMARE ([22]; 20 g/ha) | Pre-emergence action against AMARE ([22]; 80 g/ha) | Pre-emergence action against AMARE ([22]; 320 g/ha) | Pre-emergence action against SETVI ([25]; 80 g/ha) | Pre-emergence action against SETVI ([25]; 320 g/ha) | Post-emergence action against VIOTR in % ([27]; 80 g/ha)
80%: Post-emergence action against LOLRI in % [2] | Pre-emergence action against POLCO ([5]; 80 g/ha) | Post-emergence action against ABUTH ([6]; 5 g/ha) | Post-emergence action against ECHCG in % ([10]; 5 g/ha) | Post-emergence action against ECHCG in % ([10]; 20 g/ha) | Pre-emergence action against LOLRI ([12]; 80 g/ha) | Post-emergence action against PHBPU in % ([23]; 20 g/ha) | Post-emergence action against VERPE in % ([24]; 80 g/ha)
90%: Post-emergence action against ABUTH ([6]; 20 g/ha) | Post-emergence action against MATIN in % ([7]; 5 g/ha) | Pre-emergence action against VERPE ([8]; 320 g/ha) | Pre-emergence action against STEME ([9]; 20 g/ha) | Post-emergence action against ECHCG in % ([10]; 80 g/ha) | Post-emergence action against AVEFA in % ([11]; 20 g/ha) | Pre-emergence action against LOLRI ([12]; 320 g/ha) | Post-emergence action against POLCO in % ([17]; 20 g/ha) | Pre-emergence action against HORMU [20] | Post-emergence action against PHBPU in % ([23]; 80 g/ha) | Pre-emergence action against SETVI ([25]; 20 g/ha) | Post-emergence action against ALOMY ([26]; 80 g/ha) | Post-emergence action against VIOTR in % ([27]; 5 g/ha) | Post-emergence action against VIOTR in % ([27]; 20 g/ha) | Pre-emergence action against ALOMY ([28]; 320 g/ha)
